# Experimental data: USRE30548E, “Peptides which effect release of hormones” (The Salk Institute for Biological Studies, priority 1979, dated 1981)
# Bridge positions count the residues as written; N and C are the ends. Ends that are not written are not given here.
# How the values were obtained:
# insulin secretion = experiment: In vivo bioassay: inhibition of insulin release in anesthetized rats (portal vein plasma); design: species or system Sprague-Dawley-CD rats; conditions: in vivo rat, via external jugular vein; somatostatin = 100
# Method: (§1) An investigation of the effect of somatostatin, dihydrosomatostatin, (as controls) and the peptides of the invention to inhibit the release of glucagon and insulin was made as follows:
# (§2) In vivo Bioassay: Male Sprague-Dawley-CD rats weighing 180-200 g housed in temperature and humidity controlled quarters with 14h light and 10h dark (light 0700-[…]) were used in all experiments. Animals were fed a standard ration and tap water ad libitum. Experiments were carried out at least 5 days after arrival of rats from the supplier between the hours 1400 to 1600. After ether anesthesia, peptides or saline were administered in a volume of 0.2 ml. via the external jugular vein. Animals remained anesthetized until the time of blood collection from the portal vein. […]
# (§3) Plasma was stored at -20° C. for insulin and glucagon determinations. Insulin levels were determined by the method of Herbert et al, J. […]. Endocr. […] Glucagon was determined by the method of Faloona and Unger, in Jaffe et al ed., Methods of Hormone Radioimmunoassay, Academic Press, New York, 1974, p. […] was determined by the glucose oxidase method, utilizing a Beckman Glucose Analyzer.
# (§4) All experiments were carried on in a randomized block design. Following analysis of variance difference between treatments were determined by the multiple range tests of Dunnett and Duncan. Potency values were calculated from four or six point bioassays.
# glucagon secretion = experiment: In vivo bioassay: inhibition of glucagon release in anesthetized rats (portal vein plasma); design: species or system Sprague-Dawley-CD rats; conditions: in vivo rat, via external jugular vein; somatostatin = 100
# Method: as §1, §2, §3, §4
substance,measurement,setting,value
"somatostatin (AGCKNFFWKTFTSC; disulfide 3-14; ends not checked; UniProt P61278 103-116, looked up)","percent effectiveness for inhibiting secretion of Insulin, somatostatin taken as the base",insulin secretion,100%
same,"percent effectiveness for inhibiting secretion of Glucagon, somatostatin taken as the base",glucagon secretion,100%
